Data set [1] in a line: Hematological, enzymatic and chemical blood analyses and weight change, mice with KHJJ mammary carcinomas (Examples 4-7, Table 1). The class given is in vivo, BALB/c mice. As to conditions: NiTCP 160 or BPA 900 μg/gbw; 6-78 hr. The method, then: Female BALB/c mice (Taconic Farms, Germantown, N.Y.) (20-25 g) were implanted with either KHJJ or EMT-6 tumors. For KHJJ tumors, 1-3 mm^3 tumor fragments were implanted subcutaneously (s.c.) in the dorsal thorax of each mouse using an 18-gauge trocar. For EMT-6 tumors, 2.5×10^5 cells were implanted similarly using a 27-gauge needle. EMT-6 tumor cells were grown alternately in vivo and in vitro. Single-cell suspensions were prepared from mouse-grown tumors by trypsinization. These were grown in cell culture for several passages and then were frozen in 10% DMSO and stored in liquid nitrogen. Prior to implantation in mice, the cells were thawed and grown in tissue culture in Alpha-MEM with 10% FBS for several passages. […]
Levels of glucose [GLU], blood urea nitrogen [BUN], blood creatinine [BCR], alanine transaminase [ALT], aspartate transaminase [AST], alkaline phosphatase [ALP], total protein [TPR], albumin [ALB], and creatine phosphokinase [CPK] were determined in blood plasma using a Cobas Fara II microanalysis system. Blood platelets [PLT] and white blood cells [WBC] were counted using a Serono-Baker System 9000 automated hematology microanalyzer. […]

The subject of the next data set is KHJJ mammary carcinomas. Nature of the data set: Boron biodistribution, mice with KHJJ mammary carcinomas (Examples 4-7, Table 1). The data set is classed as in vivo, BALB/c mice. As to conditions: mouse, in vivo; for Boron Concentration: Blood / Boron Concentration: Brain / Boron Concentration: Tumor: ip, 160 mg/kg. Here is the method:
Female BALB/c mice (Taconic Farms, Germantown, N.Y.) (20-25 g) were implanted with either KHJJ or EMT-6 tumors. For KHJJ tumors, 1-3 mm^3 tumor fragments were implanted subcutaneously (s.c.) in the dorsal thorax of each mouse using an 18-gauge trocar. For EMT-6 tumors, 2.5×10^5 cells were implanted similarly using a 27-gauge needle. EMT-6 tumor cells were grown alternately in vivo and in vitro. Single-cell suspensions were prepared from mouse-grown tumors by trypsinization. These were grown in cell culture for several passages and then were frozen in 10% DMSO and stored in liquid nitrogen. Prior to implantation in mice, the cells were thawed and grown in tissue culture in Alpha-MEM with 10% FBS for several passages.
Under deep halothane anesthesia leading to euthanasia, right ventricular blood was collected in Microtainer (Becton-Dickinson, Rutherford, N.J.) tubes containing EDTA for hematological analyses and boron assays of whole blood and in Microtainer™ tubes containing lithium heparin for chemical analyses and enzyme assays of blood plasma. Tumor, brain, fat, muscle, and liver tissues were sampled at necropsy for boron analyses.
Direct current plasma-atomic emission spectroscopy [DCP-AES] (ARL/Fisons Model SS-7) was used (detection limit: 0.1 μg/ml). Samples (50-130 mg) were digested at 60° C. with sulfuric acid:nitric acid (1:1). Triton X-100 and water were added to give final concentrations of ≈50 mg tissue/ml, 15% total acid v/v and 5% Triton X-100 v/v. Fat and liver tissues were assayed for ^10 B by prompt-gamma spectroscopy (Fairchild, et al., 1986). The prompt-gamma measurements were multiplied by 5.0 to give the total boron concentrations due to the use of boron of natural isotope abundance in the syntheses of all boronated porphyrins reported.
Seven mice having KHJJ mammary carcinomas were given one intraperitoneal (i.p.) injection of 900 μg/g body weight of the boron compound presently used for BNCT of malignant brain tumors, p-boronophenylalanine (BPA) complexed with fructose. BPA was prepared in accordance with procedure described in Coderre, et al., 1996 incorporated herein by reference in its entirety as if set forth in full.
Mice were euthanized during the collection of blood while under Halothane anesthesia. At necropsy, the apparent states of structural integrity, consistency, color or abnormality, if any, of tissues were observed and tumor, brain and liver tissues were collected from each mouse for boron analysis.
Eight mice having KHJJ mammary carcinomas were injected with the NiTCP solution in the amount of 160 μg NiTCP/g body weight (36 μgB/g body weight) in six i.p. injections over 20 hours.
Six hours after the mice were last injected with NiTCP, mice were euthanized during the collection of blood while under Halothane anesthesia and right ventricular blood was collected from each mouse for hematological and chemical analysis without pooling the samples. At necropsy, the apparent states of structural integrity, consistency, color, or abnormality, if any, of tissues were observed and tumor, brain and liver tissues were collected from each mouse for boron analysis without pooling the samples.
Seven mice having KHJJ mammary carcinomas were injected with the NiTCP solution in the amount of 160 μg NiTCP/g body weight (36 μgB/g body weight) in six i.p. injections over 20 hours.
Sixteen hours after the mice were injected with NiTCP, mice were euthanized during the collection of blood while under Halothane anesthesia and right ventricular blood was collected from each mouse for hematological and chemical analysis without pooling the samples. At necropsy, the apparent states of structural integrity, consistency, color, or abnormality, if any, of tissues were observed and tumor, brain and liver tissues were collected from each mouse for boron analysis. […]

“Also recorded” adds a separate entry of the source.

As to “Nickel Tetracarboranylphenylporphyrin [NiTCP]”, in data set [1], the “toxicity, in words” value is “some minor, evidently transient, weight loss was noted six hours after the last NiTCP injection; also recorded: The BUN levels in mice given NiTCP at all three time points were higher than those in mice given BPA; also recorded: The ALP and ALT were somewhat depressed 78 hours after injections”. For the same substance, in the data set on KHJJ mammary carcinomas, the “boron delivered to tumor relative to BPA” value was “twice the amount of boron to tumor than that of BPA”. For the same substance, in the data set with KHJJ mammary carcinomas (16 h), the “Boron Concentration: Blood” value is 13.2 (4.2-30.5) μg B/g, the “Boron Concentration: Brain” value is 3.8 (2.4-5.0) μg B/g and the “Boron Concentration: Tumor” value is 25.5 (16.2-38.7) μg B/g. Moreover, in the data set with KHJJ mammary carcinomas (78 h), the “Boron Concentration: Blood” value is reported as 0.2 (0.4-5.8) μg B/g, the “Boron Concentration: Brain” value is 1.7 (0.1-0.2) μg B/g and the “Boron Concentration: Tumor” value is 17.0 (9.2-28.2) μg B/g.

(Values after patent US5877165A, “Boronated porhyrins and methods for their use” (priority 1997, dated 1999).)
